From patent US11000511B2, “Chemical compounds as antibiotics” (priority 2017, dated 2021)

Assays:
[1] = target: T1, LasB elastase activity in dialysed supernatant from P. aeruginosa strain PA01 (Pseudomonas aeruginosa, UniProt P14756); test: Elastin Congo Red assay to determine % inhibition (Assay 1); type: biochemical; conditions: read-out: Elastin hydrolysis % inhibition @ 50/25 μM inhibitor concentration Assay 1
T1 construct: uses as source of enzyme dialysed supernatant from P. aeruginosa; endogenous in cells; host or cells: P. aeruginosa strain PA01 culture supernatant, filtered and dialysed
Protocol: (§1) Experiments were therefore conducted (1) to measure the potency of inhibition of compounds of the invention against purified Pseudomonas aeruginosa LasB enzyme and also experiments were conducted (2) to measure the ability of compounds of the invention to inhibit LasB-catalysed elastin degradation. The first assay uses a commercial fluorescent synthetic peptide and purified LasB enzyme. The LasB hydrolysis kinetics are measured allowing the determination of the IC50 and Ki of the inhibitors; the second is a more physiological assay using dialysed Pseudomonas aeruginosa supernatant as source of enzyme, plus its natural substrate Elastin. It is an “end point assay” that determines the percentage of LasB inhibition by each compound for one particular time point and inhibitor concentration. Technical details are described below:
The Elastin assay uses as source of enzyme dialysed supernatant from P. aeruginosa and the elastin congo red as substrate. The natural LasB substrate, elastin, is complexed with the congo red dye (Elastin Congo Red, ECR). The elastolysis activity from the culture supernatant will degrade elastin and release the congo red dye into the supernatant. This red dye release can be measured with a spectrophotometer. Some compounds of Formula (I) were assessed using the method of Assay 1 (described below). Other compounds of Formula (I) were assessed using the alternative but equivalent method of Assay 2 (described below).
Method (Assay 1): To determine LasB elastase activity and assess compound inhibition, an overnight culture of P. aeruginosa strain PA01 is diluted thousand-fold in LB medium. This diluted solution is incubated during 19 hours in a shaking incubator. Culture supernatants are recovered by centrifugation and filtrated through a […] filter. These supernatants are dialysed (filtration molecules <20 kDa) into a 50 mM Tris pH 7.4, 2.5 mM CaCl2 solution at 4° C. under agitation for 24 hours. Supernatant dialysed is then mixed volume/volume with the ECR suspension (20 mg/mL of ECR in 100 mM Tris buffer supplemented with 1 mM CaCl2) supplemented with TritonX 100 (final concentration of 0.01%) in presence of different concentrations of compound (routinely 50 and 25 μM). The mixed reaction is then incubated for 24 hours in a 37° shaking incubator. As a negative control, the mixed supernatant is replaced by Tris solution (50 mM Tris pH 7.4, 2.5 mM CaCl2). The reaction supernatant is recovered by centrifugation and the release of congo red is measured by its absorbance at OD520. Percentage inhibition is determined using the following equation: (OD520 value of DMSO SN−OD520 value of LB)−(OD520 value of Compound SN−OD520 value of LB)/(OD520 value of DMSO SN−OD520 value of LB)×100.

[2] = target: T2, purified LasB protein from P. aeruginosa (Pseudomonas aeruginosa, UniProt P14756); test: Fluorometric assay to determine Ki (Assay 1); type: biochemical; conditions: Ki (μM) Assay 1, purified LasB, substrate Abz-Ala-Gly-Leu-Ala-p-Nitro-Benzyl-Amide 250 μM, Ki calculated from IC50; inhibitor 0.006 to 200 μM
T2 construct: purchased Merck or Charles River Laboratories
Protocol: as §1
This assay uses commercially available substrate (Abz-Ala-Gly-Leu-Ala-p-Nitro-Benzyl-Amide (Ex: 340 nm, Em: 415 nm) from Peptide International) and purified LasB protein from P. aeruginosa (provided by Merck or Charles River Laboratories). It is performed to determine LasB elastase activity and assess compound inhibition in 96-well plate format. Some compounds of Formula (I) were assessed using the method of Assay 1 (described below). Other compounds of Formula (I) were assessed using the alternative but equivalent method of Assay 2 (described below).
Method: 10 to 140 ng/ml purified LasB is incubated with 250 μM Abz-Ala-Gly-Leu-Ala-p-Nitro-Benzyl-Amide in 50 mM Tris-HCl pH 7.4, 2.5 mM CaCl2), 0.01% of Triton X100 at 37° C. LasB activity (corresponding to fluorescence emission induced by substrate hydrolysis) is measured over 30 min at 37° C. with a fluorescence plate reader such as the Perkin Elmer Envision or similar. Different range of inhibitor concentrations are routinely assessed depending of inhibitor potency from 0.006 to 200 μM (Assay 1; 2-fold dilutions series) or from 0.0016 to 200 μM (Assay 2; 2-fold dilutions series) in order to determine IC50.
The equation used to calculate the Ki from IC50 is: Ki=IC50/(1+([S]/Km)) where [S]=250 μM and Km=214 μM.

T2 sequence (P14756 198-498): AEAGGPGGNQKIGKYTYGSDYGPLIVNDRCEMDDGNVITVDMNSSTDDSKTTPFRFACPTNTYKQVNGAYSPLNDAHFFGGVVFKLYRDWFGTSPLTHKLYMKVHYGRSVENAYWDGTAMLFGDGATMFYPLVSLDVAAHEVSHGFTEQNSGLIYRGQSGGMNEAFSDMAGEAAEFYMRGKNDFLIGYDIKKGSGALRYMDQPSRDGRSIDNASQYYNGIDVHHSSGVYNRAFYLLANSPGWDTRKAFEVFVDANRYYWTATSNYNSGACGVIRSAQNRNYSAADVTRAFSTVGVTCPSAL
T1 sequence (P14756 198-498): as above

## O=C(O)CC1(C(=O)NCc2nc3c(s2)CNCC3)Cc2ccccc2C1 [Example 44, 2-[2-(4,5,6,7-tetrahydrothiazolo[5,4-c]pyridin-2-ylmethylcarbamoyl)indan-2-yl]acetic acid]
[1]
  inhibition at 50 µM: 15 to 30%
[2]
  Ki: 2 to 10 µM

## CN1CCC(OC(=O)[C@H](Cc2c[nH]c3ccccc23)NC(=O)C2(CC(=O)O)Cc3ccccc3C2)CC1 [Example 45, 2-(2-{[(2S)-3-(1H-indol-3-yl)-1-[(1-methylpiperidin-4-yl)oxy]-1-oxopropan-2-yl]carbamoyl}-2,3-dihydro-1H-inden-2-yl)acetic acid]
[1]
  inhibition at 50 µM: > 60%
[2]
  Ki: < 0.3 µM

## C[N+](C)(C)CCNC(=O)[C@H](Cc1c[nH]c2ccccc12)NC(=O)C1(CC(=O)O)Cc2ccccc2C1 [Example 46, (2-{[(1S)-2-(1H-indol-3-yl)-1-{[2-(trimethylammonio)ethyl]carbamoyl}ethyl]carbamoyl}-1,3-dihydroinden-2-yl)acetate]
[1]
  inhibition at 50 µM: 30 to 60%
[2]
  Ki: 2 to 10 µM

## CC(C)(C)OC(=O)[C@H](Cc1c[nH]c2ccccc12)NC(=O)C1(CC(=O)O)Cc2ccccc2C1 [Example 47, (S)-2-(2-((1-(tert-butoxy)-3-(1H-indol-3-yl)-1-oxopropan-2-yl)carbamoyl)-2,3-dihydro-1H-inden-2-yl)acetic acid]
[1]
  inhibition at 50 µM: > 60%
[2]
  Ki: < 0.3 µM

## NC(=O)[C@H](Cc1ccc(O)cc1)NC(=O)C1(CC(=O)O)Cc2ccccc2C1 [Example 48, (S)-2-(2-((1-amino-3-(4-hydroxyphenyl)-1-oxopropan-2-yl)carbamoyl)-2,3-dihydro-1H-inden-2-yl)acetic acid]
[1]
  inhibition at 50 µM: 30 to 60%
[2]
  Ki: 2 to 10 µM

## O=C(O)CC1(C(=O)N[C@@H](Cc2ccc(O)cc2)C(=O)O)Cc2ccccc2C1 [Example 49, (2-(carboxymethyl)-2,3-dihydro-1H-indene-2-carbonyl)-L-tyrosine]
[1]
  inhibition at 50 µM: > 60%
[2]
  Ki: 0.3 to 2 µM

## O=C(O)CC1(C(=O)N[C@@H](Cc2c[nH]c3ccccc23)C(=O)O)Cc2ccccc2C1 [Example 50, (2-(carboxymethyl)-2,3-dihydro-1H-indene-2-carbonyl)-L-tryptophan]
[1]
  inhibition at 50 µM: > 60%
[2]
  Ki: < 0.3 µM

## O=C(O)CC1(C(=O)NCc2nc3ccccc3[nH]2)Cc2ccccc2C1 [Example 51, 2-(2-(((1H-benzo[d]imidazol-2-yl)methyl)carbamoyl)-2,3-dihydro-1H-inden-2-yl)acetic]
[1]
  inhibition at 50 µM: 15 to 30%
[2]
  Ki: 2 to 10 µM

## NC(=O)[C@H](Cc1c[nH]c2ccccc12)NC(=O)C1(CC(=O)O)Cc2ccccc2C1 [Example 52, (S)-2-(2-((1-amino-3-(1H-indol-3-yl)-1-oxopropan-2-yl)carbamoyl)-2,3-dihydro-1H-inden-2-yl)acetic acid]
[1]
  inhibition at 50 µM: > 60%
[2]
  Ki: < 0.3 µM

## COC(=O)[C@H](Cc1c[nH]c2ccccc12)NC(=O)C1(CC(=O)O)Cc2ccccc2C1 [Example 53, (S)-2-(2-((3-(1H-indol-3-yl)-1-methoxy-1-oxopropan-2-yl)carbamoyl)-2,3-dihydro-1H-inden-2-yl)acetic acid]
[1]
  inhibition at 50 µM: > 60%
[2]
  Ki: 0.3 to 2 µM

## O=C(O)CC1(C(=O)NCc2nccs2)Cc2ccccc2C1 [Example 54, 2-(2-((thiazol-2-ylmethyl)carbamoyl)-2,3-dihydro-1H-inden-2-yl)acetic acid]
[1]
  inhibition at 50 µM: > 60%
[2]
  Ki: 0.3 to 2 µM

## O=C(O)CC1(C(=O)NCc2ccc3ccccc3n2)Cc2ccccc2C1 [Example 55, 2-(2-((quinolin-2-ylmethyl)carbamoyl)-2,3-dihydro-1H-inden-2-yl)acetic acid]
[1]
  inhibition at 50 µM: > 60%
[2]
  Ki: 0.3 to 2 µM

## Cn1c(CNC(=O)C2(CC(=O)O)Cc3ccccc3C2)nc2ccccc21 [Example 56, 2-(2-(((1-methyl-1H-benzo[d]imidazol-2-yl)methyl)carbamoyl)-2,3-dihydro-1H-inden-2-yl)acetic acid]
[1]
  inhibition at 50 µM: 30 to 60%
[2]
  Ki: 0.3 to 2 µM

## O=C(O)CC1(C(=O)NCc2coc3ccccc23)Cc2ccccc2C1 [Example 57, 2-[2-(benzofuran-3-ylmethylcarbamoyl)indan-2-yl]acetic acid]
[1]
  inhibition at 50 µM: 30 to 60%
[2]
  Ki: 0.3 to 2 µM

## O=C(O)CC1(C(=O)NCc2nc3c(F)cccc3s2)Cc2ccccc2C1 [Example 60, 2-(2-(((4-fluorobenzo[d]thiazol-2-yl)methyl)carbamoyl)-2,3-dihydro-1H-inden-2-yl)acetic acid]
[1]
  inhibition at 50 µM: > 60%
[2]
  Ki: < 0.3 µM

## O=C(O)CC1(C(=O)NCc2nc3c(Br)cccc3s2)Cc2ccccc2C1 [Example 61, 2-(2-(((4-bromobenzo[d]thiazol-2-yl)methyl)carbamoyl)-2,3-dihydro-1H-inden-2-yl)acetic acid]
[1]
  inhibition at 50 µM: > 60%
[2]
  Ki: < 0.3 µM

## COc1cccc2sc(CNC(=O)C3(CC(=O)O)Cc4ccccc4C3)nc12 [Example 62, 2-(2-(((4-methoxybenzo[d]thiazol-2-yl)methyl)carbamoyl)-2,3-dihydro-1H-inden-2-yl)acetic acid]
[1]
  inhibition at 50 µM: > 60%
[2]
  Ki: < 0.3 µM

## O=C(O)CC1(C(=O)NCc2nc3c(I)cccc3s2)Cc2ccccc2C1 [Example 63, 2-(2-(((4-iodobenzo[d]thiazol-2-yl)methyl)carbamoyl)-2,3-dihydro-1H-inden-2-yl)acetic acid]
[1]
  inhibition at 50 µM: > 60%
[2]
  Ki: < 0.3 µM

## CCOc1cccc2sc(CNC(=O)C3(CC(=O)O)Cc4ccccc4C3)nc12 [Example 64, 2-(2-(((4-ethoxybenzo[d]thiazol-2-yl)methyl)carbamoyl)-2,3-dihydro-1H-inden-2-yl)acetic acid]
[1]
  inhibition at 50 µM: > 60%
[2]
  Ki: 0.3 to 2 µM

## Cc1cccc2sc(CNC(=O)C3(CC(=O)O)Cc4ccccc4C3)nc12 [Example 65, 2-(2-(((4-methylbenzo[d]thiazol-2-yl)methyl)carbamoyl)-2,3-dihydro-1H-inden-2-yl)acetic acid]
[1]
  inhibition at 50 µM: > 60%
[2]
  Ki: < 0.3 µM

## O=C(O)CC1(C(=O)NCc2nc3c(N4CCOCC4)cccc3s2)Cc2ccccc2C1 [Example 66, 2-(2-(((4-morpholinobenzo[d]thiazol-2-yl)methyl)carbamoyl)-2,3-dihydro-1H-inden-2-yl)acetic acid]
[1]
  inhibition at 50 µM: > 60%
[2]
  Ki: 0.3 to 2 µM

## CN(C)C1CN(c2ccc3nc(CNC(=O)C4(CC(=O)O)Cc5ccccc5C4)sc3c2)C1 [Example 67, 2-(2-(((6-(3-(dimethylamino)azetidin-1-yl)benzo[d]thiazol-2-yl)methyl)carbamoyl)-2,3-dihydro-1H-inden-2-yl)acetic acid]
[1]
  inhibition at 50 µM: > 60%
[2]
  Ki: 0.3 to 2 µM

## C[N+](C)(C)C1CN(c2ccc3nc(CNC(=O)C4(CC(=O)[O-])Cc5ccccc5C4)sc3c2)C1 [Example 68, 2-[2-[[6-[3-(trimethylammonio)azetidin-1-yl]-1,3-benzothiazol-2-yl]methylcarbamoyl]indan-2-yl]acetate]
[1]
  inhibition at 50 µM: 30 to 60%
[2]
  Ki: 0.3 to 2 µM

## NCCNc1ccc2nc(CNC(=O)C3(CC(=O)O)Cc4ccccc4C3)sc2c1 [Example 69, 2-[2-[[6-(2-aminoethylamino)-1,3-benzothiazol-2-yl]methylcarbamoyl]indan-2-yl]acetic acid]
[1]
  inhibition at 50 µM: > 60%
[2]
  Ki: 0.3 to 2 µM
